In PMC9197942 (Clinical cancer research : an official journal of the …, 2022):
Where two headings read alike, the source gives them in different places.

What was measured:
[1] = tested on: CYP3A; conditions: cited from earlier work
[2] = tested on: animals; assay: Animal toxicology studies; format: in vivo
[3] = target: CYP2D6 (Homo sapiens, UniProt P10635); conditions: cited from earlier work
[4] = cited from earlier work
[5] = tested on: OATP1B1; conditions: cited from earlier work
[6] = tested on: p-glycoprotein; conditions: cited from earlier work
[7] = tested on: human peripheral blood mononuclear cells; conditions: CD3-CD28 stimulation of human PBMC, ex-vivo or in vitro; cited from earlier work
[8] = target: T1, UGT1A1 (Homo sapiens, UniProt P22309); assay: UGT1A1 inhibition; format: in vitro ADME; conditions: at concentrations that could be achieved clinically
[9] = tested on: mTOR pathway; conditions: in vitro; cited from earlier work
[10] = target: T1, UGT1A1; conditions: cited from earlier work
[11] = tested on: dogs; assay: Safety pharmacology studies in dogs; format: in vivo, dog
[12] = Photoabsorbance in vitro; format: physicochemical
[13] = tested on: BCRP; conditions: cited from earlier work
[14] = tested on: patients with cGVHD; assay: Study KD025-208 dose-escalation trial; format: in vivo, human; conditions: 200 mg daily, 200 mg twice daily and 400 mg daily; 54 patients failing 1-3 prior lines
[15] = target: human ether-à-go-go-related gene (hERG) current (Homo sapiens, UniProt Q12809); assay: hERG current in vitro; format: biochemical
[16] = Clinical pharmacokinetics of belumosudil; format: in vivo, human
[17] = tested on: cGVHD mouse models; conditions: cited from earlier work
[18] = tested on: patients with chronic GVHD; assay: Study KD025-213 efficacy, belumosudil 200 mg daily cohort; format: in vivo, human; conditions: for Median time from first response to death or new systemic therapy: 49 responders; for Overall response rate (ORR) through Cycle 7 Day 1 (CR or PR): N=65, 2014 NIH consensus criteria, FDA adjudicated; for Patients with 7-point or greater decrease in Lee Symptom Scale summary score through Cycle 7 Day 1: N=65, exploratory; for Median duration of response: responders
[19] = tested on: patients with cGVHD; assay: Pooled exposure-response analyses; parameters: species or system human; conditions: 186 patients
[20] = tested on: MRTF; conditions: ex-vivo or in vitro; cited from earlier work
[21] = tested on: CYP2C19; conditions: cited from earlier work
[22] = tested on: ROCK1 isoform; conditions: in vitro, compared with ROCK2; cited from earlier work
[23] = Tissue distribution; conditions: in vivo
[24] = tested on: CYP1A2; conditions: cited from earlier work
[25] = tested on: STAT3; conditions: ex-vivo or in vitro; cited from earlier work
[26] = tested on: adult patients with cGVHD; assay: Clinical safety, Studies KD025-208 and KD025-213, belumosudil 200 mg daily; format: in vivo, human
[27] = target: CYP2C8 (Homo sapiens, UniProt P10632); assay: In vitro metabolism; format: in vitro ADME
[28] = target: CYP3A4 (Homo sapiens, UniProt P08684); assay: In vitro metabolism; format: in vitro ADME
[29] = Population pharmacokinetics; parameters: species or system human; conditions: in comparison to healthy volunteers
[30] = target: ROCK2 (Homo sapiens, UniProt O75116); assay: ROCK2 inhibition; format: biochemical
[31] = Reproductive toxicity studies; conditions: in vivo
[32] = with proton pump inhibitor rabeprazole
[33] = with strong CYP3A inducer rifampicin
[34] = N=65, through Cycle 7 Day 1, listed as belumosudil

Chain of ROCK2 (O75116 whole entry): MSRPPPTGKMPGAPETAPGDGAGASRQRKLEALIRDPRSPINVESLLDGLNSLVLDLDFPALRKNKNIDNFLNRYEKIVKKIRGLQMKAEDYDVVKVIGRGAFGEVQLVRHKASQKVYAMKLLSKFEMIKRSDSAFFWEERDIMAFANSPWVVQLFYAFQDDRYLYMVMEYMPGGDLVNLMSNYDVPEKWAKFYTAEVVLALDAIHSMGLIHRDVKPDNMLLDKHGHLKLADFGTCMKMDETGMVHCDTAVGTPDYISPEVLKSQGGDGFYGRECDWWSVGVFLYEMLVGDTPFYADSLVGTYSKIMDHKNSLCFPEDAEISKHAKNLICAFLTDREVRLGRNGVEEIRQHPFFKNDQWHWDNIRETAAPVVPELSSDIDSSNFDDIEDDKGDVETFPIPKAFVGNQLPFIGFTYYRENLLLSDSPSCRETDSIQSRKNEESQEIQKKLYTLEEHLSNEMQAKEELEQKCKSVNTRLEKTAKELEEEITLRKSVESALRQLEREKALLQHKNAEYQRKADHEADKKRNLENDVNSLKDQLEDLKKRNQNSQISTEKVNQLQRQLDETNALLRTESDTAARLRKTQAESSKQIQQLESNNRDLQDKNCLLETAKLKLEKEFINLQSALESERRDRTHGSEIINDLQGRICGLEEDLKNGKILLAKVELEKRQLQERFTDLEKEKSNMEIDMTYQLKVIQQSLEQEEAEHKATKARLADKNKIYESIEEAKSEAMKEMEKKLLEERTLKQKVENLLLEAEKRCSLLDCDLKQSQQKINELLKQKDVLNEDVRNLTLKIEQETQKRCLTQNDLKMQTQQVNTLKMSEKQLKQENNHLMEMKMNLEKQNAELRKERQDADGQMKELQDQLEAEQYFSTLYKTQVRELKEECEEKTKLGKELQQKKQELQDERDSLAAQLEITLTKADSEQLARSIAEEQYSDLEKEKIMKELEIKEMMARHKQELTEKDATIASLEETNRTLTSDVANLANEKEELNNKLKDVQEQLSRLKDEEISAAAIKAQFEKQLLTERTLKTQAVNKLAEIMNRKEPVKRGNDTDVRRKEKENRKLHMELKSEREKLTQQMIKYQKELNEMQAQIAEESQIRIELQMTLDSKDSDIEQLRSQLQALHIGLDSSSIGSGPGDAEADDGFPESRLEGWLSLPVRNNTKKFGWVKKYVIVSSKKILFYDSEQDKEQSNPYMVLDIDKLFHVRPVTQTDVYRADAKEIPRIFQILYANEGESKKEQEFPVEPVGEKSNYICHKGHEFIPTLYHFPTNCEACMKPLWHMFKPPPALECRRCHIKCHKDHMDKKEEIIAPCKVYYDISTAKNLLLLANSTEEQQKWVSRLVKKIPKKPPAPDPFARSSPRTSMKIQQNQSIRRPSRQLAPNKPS
T1 sequence (P22309 26-533): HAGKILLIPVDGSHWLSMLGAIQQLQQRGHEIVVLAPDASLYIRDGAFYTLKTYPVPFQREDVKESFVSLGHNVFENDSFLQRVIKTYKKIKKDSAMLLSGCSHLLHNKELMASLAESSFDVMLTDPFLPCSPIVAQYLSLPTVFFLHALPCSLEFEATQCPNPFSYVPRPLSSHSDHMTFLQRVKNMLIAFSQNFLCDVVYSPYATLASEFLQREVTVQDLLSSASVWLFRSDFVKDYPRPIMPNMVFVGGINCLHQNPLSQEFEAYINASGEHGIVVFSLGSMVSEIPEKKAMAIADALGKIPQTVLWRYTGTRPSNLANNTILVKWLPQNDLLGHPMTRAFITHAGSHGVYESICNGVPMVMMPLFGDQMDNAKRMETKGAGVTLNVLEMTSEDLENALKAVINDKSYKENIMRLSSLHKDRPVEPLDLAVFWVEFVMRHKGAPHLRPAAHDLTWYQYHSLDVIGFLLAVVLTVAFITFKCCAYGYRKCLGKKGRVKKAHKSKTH
Chain of CYP3A4 (P08684 whole entry): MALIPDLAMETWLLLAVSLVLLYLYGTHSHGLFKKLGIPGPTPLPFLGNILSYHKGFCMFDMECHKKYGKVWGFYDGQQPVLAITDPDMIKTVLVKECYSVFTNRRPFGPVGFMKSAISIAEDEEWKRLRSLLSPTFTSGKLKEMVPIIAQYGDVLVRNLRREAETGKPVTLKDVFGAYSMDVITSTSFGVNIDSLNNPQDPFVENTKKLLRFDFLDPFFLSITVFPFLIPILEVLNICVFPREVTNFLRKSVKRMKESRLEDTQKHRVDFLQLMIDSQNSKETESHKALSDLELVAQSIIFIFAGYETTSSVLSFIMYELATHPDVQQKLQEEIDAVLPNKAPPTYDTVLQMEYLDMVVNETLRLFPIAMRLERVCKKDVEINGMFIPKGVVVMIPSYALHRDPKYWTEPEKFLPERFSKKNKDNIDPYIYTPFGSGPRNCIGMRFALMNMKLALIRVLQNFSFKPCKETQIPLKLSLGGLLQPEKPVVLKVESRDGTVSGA
Chain of CYP2C8 (P10632 whole entry): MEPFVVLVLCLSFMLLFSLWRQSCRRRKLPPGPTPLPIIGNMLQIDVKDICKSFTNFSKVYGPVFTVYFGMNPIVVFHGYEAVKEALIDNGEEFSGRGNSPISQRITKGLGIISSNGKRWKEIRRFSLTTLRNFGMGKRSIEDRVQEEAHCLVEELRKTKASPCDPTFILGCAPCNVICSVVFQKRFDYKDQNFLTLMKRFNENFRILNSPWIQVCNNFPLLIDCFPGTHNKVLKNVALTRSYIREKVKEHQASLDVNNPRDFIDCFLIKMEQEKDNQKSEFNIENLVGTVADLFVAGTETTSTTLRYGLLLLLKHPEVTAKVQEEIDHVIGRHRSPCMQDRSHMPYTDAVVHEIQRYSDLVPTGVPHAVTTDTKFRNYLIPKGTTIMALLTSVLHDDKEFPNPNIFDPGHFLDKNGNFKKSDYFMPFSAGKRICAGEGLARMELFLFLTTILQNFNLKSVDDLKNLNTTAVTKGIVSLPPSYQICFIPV
Chain of human ether-à-go-go-related gene (hERG) current (Q12809 whole entry): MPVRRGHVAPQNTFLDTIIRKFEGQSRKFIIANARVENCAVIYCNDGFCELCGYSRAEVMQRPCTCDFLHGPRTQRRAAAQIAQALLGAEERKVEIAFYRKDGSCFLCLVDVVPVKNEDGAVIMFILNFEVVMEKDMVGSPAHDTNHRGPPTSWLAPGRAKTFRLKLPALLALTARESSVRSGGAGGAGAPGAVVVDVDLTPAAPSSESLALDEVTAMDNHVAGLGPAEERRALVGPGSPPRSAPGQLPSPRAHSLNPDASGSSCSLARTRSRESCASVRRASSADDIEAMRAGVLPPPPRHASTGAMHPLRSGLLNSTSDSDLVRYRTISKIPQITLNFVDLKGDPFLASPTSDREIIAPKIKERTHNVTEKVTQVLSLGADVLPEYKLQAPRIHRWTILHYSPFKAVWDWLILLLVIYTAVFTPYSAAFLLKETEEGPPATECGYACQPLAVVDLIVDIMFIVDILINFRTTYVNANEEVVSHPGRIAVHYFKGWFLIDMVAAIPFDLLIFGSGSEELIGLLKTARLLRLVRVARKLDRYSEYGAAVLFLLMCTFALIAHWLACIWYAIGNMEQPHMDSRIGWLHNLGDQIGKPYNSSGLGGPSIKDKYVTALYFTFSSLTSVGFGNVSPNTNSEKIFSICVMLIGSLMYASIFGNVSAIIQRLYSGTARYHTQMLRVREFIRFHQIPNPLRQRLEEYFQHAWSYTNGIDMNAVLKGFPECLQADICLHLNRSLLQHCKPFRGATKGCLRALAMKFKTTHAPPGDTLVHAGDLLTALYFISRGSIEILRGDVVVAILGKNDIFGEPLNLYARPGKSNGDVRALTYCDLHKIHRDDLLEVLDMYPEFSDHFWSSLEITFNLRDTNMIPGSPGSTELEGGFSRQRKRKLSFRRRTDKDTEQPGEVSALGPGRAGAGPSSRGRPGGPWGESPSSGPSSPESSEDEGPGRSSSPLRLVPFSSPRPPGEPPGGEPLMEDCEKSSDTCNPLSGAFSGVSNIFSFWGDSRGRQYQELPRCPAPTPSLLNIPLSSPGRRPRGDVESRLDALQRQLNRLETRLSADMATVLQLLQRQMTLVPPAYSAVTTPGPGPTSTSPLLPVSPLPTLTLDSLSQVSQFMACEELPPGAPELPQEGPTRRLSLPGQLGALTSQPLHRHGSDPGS
Chain of CYP2D6 (P10635 whole entry): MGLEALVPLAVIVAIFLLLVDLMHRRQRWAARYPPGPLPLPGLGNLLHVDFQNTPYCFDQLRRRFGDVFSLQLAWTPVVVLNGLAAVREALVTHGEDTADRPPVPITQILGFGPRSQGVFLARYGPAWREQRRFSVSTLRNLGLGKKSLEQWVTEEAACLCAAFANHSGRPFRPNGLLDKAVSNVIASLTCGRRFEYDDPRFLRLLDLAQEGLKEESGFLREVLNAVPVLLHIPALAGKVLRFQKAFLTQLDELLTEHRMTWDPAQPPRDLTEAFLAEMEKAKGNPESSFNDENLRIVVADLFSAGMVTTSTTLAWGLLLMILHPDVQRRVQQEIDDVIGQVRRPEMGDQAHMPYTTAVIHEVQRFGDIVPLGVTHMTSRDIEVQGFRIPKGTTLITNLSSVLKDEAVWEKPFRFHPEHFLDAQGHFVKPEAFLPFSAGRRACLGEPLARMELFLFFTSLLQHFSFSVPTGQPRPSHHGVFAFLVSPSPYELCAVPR

SMILES: CC(C)NC(=O)COc1cccc(-c2nc(Nc3ccc4[nH]ncc4c3)c3ccccc3n2)c1 [Belumosudil]
- Effect on CYP3A [1]: little effect
- Target organs of toxicity [2]: toxicities were observed in the gastrointestinal tract, liver, kidney, hemolymphoid system, and reproductive system
- CYP2D6 inhibition [3]: inhibit
- Reduction of belumosudil Cmax [4, 32]: up to 87%
- Reduction of belumosudil overall exposure [4, 32]: up to 80%
- Reduction of belumosudil Cmax [4, 33]: approximately 60%
- Reduction of belumosudil overall exposure [4, 33]: approximately 72%
- OATP1B1 inhibition [5]: inhibit
- p-glycoprotein inhibition [6]: inhibit
- Secretion of IL-21 and IL-17 [7]: inhibited
- UGT1A1 inhibition [8]: inhibited
- mTOR pathway inhibition [9]: inhibited
- UGT1A1 inhibition [10]: inhibit
- Effect on blood pressure [11]: lowering of the blood pressure
- Photoabsorbance [12]: observed
- BCRP inhibition [13]: inhibit
- Activity in cGVHD [14]: appeared to be active
- hERG current [15]: blocked
- Delay of Tmax with food ([16]; administration with food): 0.5 h
- Increase of AUC with food ([16]; administration with food): 2 times
- Increase of Cmax with food ([16]; administration with food): 2.2 times
- Excretion in feces unchanged ([16]; human, in vivo): 30%
- Tmax ([16]; human, in vivo, oral): 1.26 h
- cGVHD-related clinical and histological abnormality scores in the lung and skin [17]: improvement
- Median time from first response to death or new systemic therapy [18]: Not estimable
- Median time from first response to death or new systemic therapy ([18]; listed as belumosudil): not reached
- Overall response rate (ORR) through Cycle 7 Day 1 (CR or PR) [18]: 49 (75%) (63% - 85%)
- Overall response rate (ORR) through Cycle 7 Day 1 (CR or PR) ([18]; listed as belumosudil): 75%
- Patients with 7-point or greater decrease in Lee Symptom Scale summary score through Cycle 7 Day 1 [18]: (52%) (40% - 65%)
- Patients with 7-point or greater decrease in Lee Symptom Scale summary score through Cycle 7 Day 1 ([18]; listed as belumosudil): 52%
- Complete Response (CR) ([18]; N=65, through Cycle 7 Day 1): 4 (6%)
- Partial Response (PR) ([18]; N=65, through Cycle 7 Day 1): 45 (69%)
- Complete Response (CR) [18, 34]: 6%
- Partial Response (PR) [18, 34]: 69%
- Median duration of response [18]: 1.9 months (1.2-2.9 months)
- Median duration of response ([18]; listed as belumosudil): 1.9 months
- Relationship of response with exposure [19]: no relationship
- MRTF-mediated gene expression [20]: inhibited
- CYP2C19 inhibition [21]: inhibit
- ROCK1 isoform inhibition [22]: with less potency
- Tissue distribution [23]: distributed to photosensitive areas such as skin and uveal tract
- CYP1A2 inhibition [24]: inhibit
- STAT3 phosphorylation and transcriptional activity [25]: inhibited
- Incidence of Viral infection ([26]; Grades ≥ 3, 200 mg daily, n=83): 4%
- Adverse reactions leading to dose interruption ([26]; human, in vivo): 29%
- Dose interruption due to diarrhea ([26]; human, in vivo): 4%
- Dose interruption due to infections ([26]; human, in vivo): 11%
- Metabolism by CYP2C8 [27]: to a lesser extent
- Metabolism by CYP3A4 [28]: metabolized primarily
- Effect of a diagnosis of GVHD on clearance [29]: decreased clearance
- ROCK2 inhibition [30]: inhibitor
- Embryo-fetal toxicity [31]: embryo-fetal toxicity
- Male fertility [31]: impaired male fertility

SMILES: NC(=O)COc1cccc(-c2nc(Nc3ccc4[nH]ncc4c3)c3ccccc3n2)c1 [KD025m1]
- ROCK2 inhibition [30]: inhibit

SMILES: O=C(O)COc1cccc(-c2nc(Nc3ccc4[nH]ncc4c3)c3ccccc3n2)c1 [KD025m2]
- ROCK2 inhibition [30]: inhibit
